Experimental data as given in US20230159453A1 (COCRYSTAL PHARMA, INC., priority 2020, published 2023).

The compounds below were run against SARS2 protease (Severe acute respiratory syndrome coronavirus 2, UniProt P0DTD1) (assay: SARS-CoV-2 protease inhibition assay (SARS2 FRET protease assay)). Details: SARS-CoV-2 protease 25 nM, FRET, peptide substrate 1.3 μM, 30 minutes at 30° C., compounds 20 μM to 1.0 nM; read-out: IC50.
Format: biochemical
In the case of `CCCCCOC(=O)N[C@@H](CC1CCCCC1)C(=O)N[C@@H](CCC(=O)N1CCOc2ccccc2C1)C(O)P(=O)(OCC)OCC` (stereo partly drawn) [Compound C6, Pentyl ((2S)-3-cyclohexyl-1-(((2S)-1-(diethoxyphosphoryl)-5-(2,3-dihydrobenzo[f][1,4]oxazepin-4(5H)-yl)-1-hydroxy-5-oxopentan-2-yl)amino)-1-oxopropan-2-yl)carbamate], the IC50 is reported as greater than 200 µM. With `CCCCCCOC(=O)N[C@@H](CC1CCCCC1)C(=O)N[C@@H](CCC(=O)N1CCOc2ccccc2C1)C(O)P(=O)(OCC)OCC` (stereo partly drawn) [Compound C7, Hexyl ((2S)-3-cyclohexyl-1-(((2S)-1-(diethoxyphosphoryl)-5-(2,3-dihydrobenzo[f][1,4]oxazepin-4(5H)-yl)-1-hydroxy-5-oxopentan-2-yl)amino)-1-oxopropan-2-yl)carbamate] the IC50 was greater than 200 µM. For `CCOP(=O)(OCC)C(O)[C@H](CC1CCN(CCc2ccccc2)C1=O)NC(=O)[C@H](CC1CCCCC1)NC(=O)OCc1cccc(Cl)c1` (stereo partly drawn) [Compound C8, 3-Chlorobenzyl ((2S)-3-cyclohexyl-1-((1-(diethoxyphosphaneyl)-1-hydroxy-3-(2-oxo-1-phenethylpyrrolidin-3-yl)propan-2-yl)amino)-1-oxopropan-2-yl) carbamate], the IC50 was greater than 200 µM. In the case of `CCOP(=O)(OCC)C(O)[C@H](CCC(=O)N1CCOc2ccc(Cl)cc2C1)NC(=O)[C@H](CC1CCCCC1)NC(=O)OCc1cccc(Cl)c1` (stereo partly drawn) [Compound C9, 3-Chlorobenzyl ((2S)-1-(((2S)-5-(7-chloro-2,3-dihydrobenzo[f][1,4]oxazepin-4(5H)-yl)-1-(diethoxyphosphoryl)-1-hydroxy-5-oxopentan-2-yl)amino)-3-cyclohexyl-1-oxopropan-2-yl)carbamate], the IC50 is reported as greater than 200 µM. `CN(CCc1ccccc1)C(=O)CC[C@@H](C=O)NC(=O)[C@H](CC1CCCCC1)NC(=O)OC1(c2cccc(Cl)c2)CC1` [Compound C10, 1-(3-Chlorophenyl) cyclopropyl ((S)-3-cyclohexyl-1-(((S)-5-(methyl (phenethyl)amino)-1,5-dioxopentan-2-yl)amino)-1-oxopropan-2-yl) carbamate] was tested, and the IC50 was greater than 200 µM. `CCOP(=O)(OCC)C(O)[C@H](CC(C)C(=O)N1CCOc2ccccc2C1)NC(=O)[C@H](CC1CCCCC1)NC(=O)OCc1cccc(Cl)c1` (stereo partly drawn) [Compound C11, 3-chlorobenzyl ((2S)-3-cyclohexyl-1-(((2S)-1-(diethoxyphosphoryl)-5-(2,3-dihydrobenzo[f][1,4]oxazepin-4(5H)-yl)-1-hydroxy-4-methyl-5-oxopentan-2-yl)amino)-1-oxopropan-2-yl)carbamate] gave an IC50 greater than 200 µM. `CCOP(=O)(OCC)C(O)[C@H](CCC(=O)N1CCNC(c2ccccc2)C1)NC(=O)[C@H](CC1CCCCC1)NC(=O)OCc1cccc(Cl)c1` (stereo partly drawn) [Compound C12, 3-Chlorobenzyl ((2S)-3-cyclohexyl-1-(((2S)-1-(diethoxyphosphoryl)-1-hydroxy-5-oxo-5-(3-phenylpiperazin-1-yl)pentan-2-yl)amino)-1-oxopropan-2-yl)carbamate] showed an IC50 greater than 200 µM. `CCOP(=O)(OCC)C(O)[C@H](CCC(=O)N1CCOc2ccccc2C1)NC(=O)[C@H](CC1CCCCC1)NC(=O)OC1CCN(C(=O)OC(C)(C)C)CC1` (stereo partly drawn) [Compound C13, Tert-butyl 4-((((2S)-3-cyclohexyl-1-(((2S)-1-(diethoxyphosphoryl)-5-(2,3-dihydrobenzo[f][1,4]oxazepin-4(5H)-yl)-1-hydroxy-5-oxopentan-2-yl)amino)-1-oxopropan-2-yl)carbamoyl)oxy)piperidine-1-carboxylate] gave an IC50 greater than 200 µM. With `CCCCCCCOC(=O)N[C@@H](CC1CCCCC1)C(=O)N[C@@H](CCC(=O)N1CCOc2ccccc2C1)C(O)P(=O)(OCC)OCC` (stereo partly drawn) [Compound C14, Heptyl ((2S)-3-cyclohexyl-1-(((2S)-1-(diethoxyphosphoryl)-5-(2,3-dihydrobenzo[f][1,4]oxazepin-4(5H)-yl)-1-hydroxy-5-oxopentan-2-yl)amino)-1-oxopropan-2-yl)carbamate] the IC50 was greater than 200 µM. `O=C[C@H](CCC(=O)N1CCOc2ccc(Cl)cc2C1)NC(=O)[C@H](CC1CCCCC1)NC(=O)OCc1cccc(Cl)c1` [Compound C15, 3-Chlorobenzyl ((S)-1-(((S)-5-(7-chloro-2,3-dihydrobenzo[f][1,4]oxazepin-4(5H)-yl)-1,5-dioxopentan-2-yl)amino)-3-cyclohexyl-1-oxopropan-2-yl)carbamate] showed an IC50 greater than 200 µM. Work on `CCCCCOC(=O)N[C@@H](CC1CCCCC1)C(=O)N[C@H](C=O)CCC(=O)N1CCOc2ccccc2C1` [Compound C16, Pentyl ((S)-3-cyclohexyl-1-(((S)-5-(2,3-dihydrobenzo[f][1,4]oxazepin-4(5H)-yl)-1,5-dioxopentan-2-yl)amino)-1-oxopropan-2-yl)carbamate] yielded an IC50 of 37.8 µM. Compound `CN(C(=O)CC[C@@H](C=O)NC(=O)[C@H](CC1CCCCC1)NC(=O)OCc1cccc(Cl)c1)C1(Cc2ccccc2)CC1` [Compound C17, 3-Chlorobenzyl ((S)-1-(((S)-5-((1-benzylcyclopropyl)(methyl)amino)-1,5-dioxopentan-2-yl)amino)-3-cyclohexyl-1-oxopropan-2-yl)carbamate] has an IC50 of 2.7 µM. In the case of `CCCOC(=O)N[C@@H](CC1CCCCC1)C(=O)N[C@H](C=O)CCC(=O)N1CCOc2ccccc2C1` [Compound C18, Propyl ((S)-3-cyclohexyl-1-(((S)-5-(2,3-dihydrobenzo[f][1,4]oxazepin-4(5H)-yl)-1,5-dioxopentan-2-yl)amino)-1-oxopropan-2-yl)carbamate], the IC50 is reported as 49.3 µM. For `CCCOC(=O)N[C@@H](CC1CCCCC1)C(=O)N[C@@H](CCC(=O)N1CCOc2ccccc2C1)C(O)P(=O)(OCC)OCC` (stereo partly drawn) [Compound C19, Propyl ((2S)-3-cyclohexyl-1-(((2S)-1-(diethoxyphosphoryl)-5-(2,3-dihydrobenzo[f][1,4]oxazepin-4(5H)-yl)-1-hydroxy-5-oxopentan-2-yl)amino)-1-oxopropan-2-yl)carbamate], the IC50 was 94.3 µM. `CC(C)(C)OC(=O)N1CCN(C(=O)CC[C@@H](C=O)NC(=O)[C@H](CC2CCCCC2)NC(=O)OCc2cccc(Cl)c2)CC1c1ccccc1` (stereo partly drawn) [Compound C20, tert-butyl 4-((S)-4-((S)-2-((((3-chlorobenzyl)oxy)carbonyl)amino)-3-cyclohexylpropanamido)-5-oxopentanoyl)-2-phenylpiperazine-1-carboxylate] was tested, and the IC50 was greater than 200 µM. For `CCOP(=O)(OCC)C(O)[C@H](CCC(=O)N1CCOc2ccccc2C1)NC(=O)[C@H](CC1CCCCC1)NC(=O)N1CCc2ccccc21` (stereo partly drawn) [Compound C21, Diethyl ((2S)-2-((S)-3-cyclohexyl-2-(indoline-1-carboxamido)propanamido)-5-(2,3-dihydrobenzo[f][1,4]oxazepin-4(5H)-yl)-1-hydroxy-5-oxopentyl)phosphonate], the IC50 was greater than 200 µM. `CN(C)C(=O)CC[C@@H](C=O)NC(=O)C(CC(C)(C)C)NC(=O)OCc1cccc(Cl)c1` (stereo partly drawn) [Compound C22, 3-Chlorobenzyl (1-(((S)-5-(dimethylamino)-1,5-dioxopentan-2-yl)amino)-4,4-dimethyl-1-oxopentan-2-yl)carbamate] showed an IC50 of 3.8 µM. Compound `CC(C)(C)OC(=O)N1CCC(OC(=O)N[C@@H](CC2CCCCC2)C(=O)N[C@H](C=O)CCC(=O)N2CCOc3ccccc3C2)CC1` [Compound C23, Tert-butyl 4-((((S)-3-cyclohexyl-1-(((S)-5-(2,3-dihydrobenzo[f][1, 4]oxazepin-4(5H)-yl)-1,5-dioxopentan-2-yl)amino)-1-oxopropan-2-yl)carbamoyl)oxy)piperidine-1-carboxylate] has an IC50 greater than 200 µM. Work on `CCCCCCCOC(=O)N[C@@H](CC1CCCCC1)C(=O)N[C@H](C=O)CCC(=O)N1CCOc2ccccc2C1` [Compound C24, Heptyl ((S)-3-cyclohexyl-1-(((S)-5-(2,3-dihydrobenzo[f][1,4]oxazepin-4(5H)-yl)-1,5-dioxopentan-2-yl)amino)-1-oxopropan-2-yl)carbamate] yielded an IC50 greater than 200 µM. With `CC(OC(=O)N[C@@H](CC1CCCCC1)C(=O)N[C@H](C=O)CCC(=O)N(C)CCc1ccccc1)c1cccc(Cl)c1` (stereo partly shown) [Compound C25] the IC50 was 11.1 µM. Work on `CCCCCCOC(=O)N[C@@H](CC1CCCCC1)C(=O)N[C@H](C=O)CCC(=O)N1CCOc2ccccc2C1` [Compound C26, Hexyl ((S)-3-cyclohexyl-1-(((S)-5-(2,3-dihydrobenzo[f][1,4]oxazepin-4(5H)-yl)-1,5-dioxopentan-2-yl)amino)-1-oxopropan-2-yl)carbamate] yielded an IC50 greater than 200 µM. `O=C[C@H](CC1CCN(CCc2ccccc2)C1=O)NC(=O)[C@H](CC1CCCCC1)NC(=O)OCc1cccc(Cl)c1` (stereo partly drawn) [Compound C27, 3-Chlorobenzyl ((2S)-3-cyclohexyl-1-oxo-1-((1-oxo-3-(2-oxo-1-phenethylpyrrolidin-3-yl)propan-2-yl)amino)propan-2-yl) carbamate] was tested, and the IC50 was greater than 200 µM. `CCOP(=O)(OCC)C(O)[C@H](CCC(=O)N1CCOc2ccccc2C1)NC(=O)[C@H](CC1CCCCC1)NC(=O)OC1CCN(S(C)(=O)=O)CC1` (stereo partly drawn) [Compound C28, 1-(Methylsulfonyl) piperidin-4-yl((2S)-3-cyclohexyl-1-(((2S)-1-(diethoxyphosphoryl)-5-(2,3-dihydrobenzo[f][1,4]oxazepin-4(5H)-yl)-1-hydroxy-5-oxopentan-2-yl)amino)-1-oxopropan-2-yl)carbamate] gave an IC50 greater than 200 µM. In the case of `CC(C[C@@H](C=O)NC(=O)[C@H](CC1CCCCC1)NC(=O)OCc1cccc(Cl)c1)C(=O)N1CCOc2ccccc2C1` (stereo partly drawn) [Compound C29, 3-Chlorobenzyl ((2S)-3-cyclohexyl-1-(((2S)-5-(2,3-dihydrobenzo[f][1,4]oxazepin-4(5H)-yl)-4-methyl-1,5-dioxopentan-2-yl)amino)-1-oxopropan-2-yl)carbamate], the IC50 is reported as greater than 200 µM. In the case of `CS(=O)(=O)N1CCC(OC(=O)N[C@@H](CC2CCCCC2)C(=O)N[C@H](C=O)CCC(=O)N2CCOc3ccccc3C2)CC1` [Compound C30, 1-(Methylsulfonyl) piperidin-4-yl((S)-3-cyclohexyl-1-(((S)-5-(2,3-dihydrobenzo[f][1,4]oxazepin-4(5H)-yl)-1,5-dioxopentan-2-yl)amino)-1-oxopropan-2-yl)carbamate], the IC50 is reported as 42.3 µM.
